Test results as given in US20110077263A1, “Methods and Compositions of Toll-Like Receptor (TLR) Agonists” (priority 2009, published 2011).

Tests used:
TLR7 and/or TLR8 = details: cited from earlier work
[1] = cited from earlier work
LC [2] = details: previous studies; cited from earlier work
[3] = system: LC and LC exposed to HPV16 VLP; type: cell-based, human; details: LC, and LC exposed to HPV16 VLP and then stimulated; for IP-10, MCP-1 and RANTES (CCL5) secretion: data not shown; for IL-12p70, TNF-α, IL-6, IL-8 and MIP-1β concentrations in supernatant: versus negative controls
Protocol: (§1) DC and LC were harvested and washed twice with PBS. […] The cells were incubated for 1 h at 37° C., mixed occasionally, and finally placed at 37° C. for 24 h in complete medium containing 1000 U/ml rGM-CSF. LC were left untreated or exposed to HPV16 VLP at a concentration of 10 μg/10^6 cells. The cells were incubated for 1 h at 37° C., mixed occasionally, and placed at 37° C. for 24 h in complete medium containing 1000 U/ml rGM-CSF. […] DC and LC were harvested, washed, and analyzed by flow cytometry for the expression and surface markers. Additionally, untreated LC and LC exposed to HPV16 VLP were also analyzed for the expression of TLR7 and TLR8.
Supernatants were collected from LC stimulated in the imidazoquinolines activation assay and submitted to the Beckman Center for Immune Monitoring Core at the University of Southern California for cytokine and chemokine analysis. The assays were completed using Human Cytokine LINCOplex Kits (LINCO Research) and the Bio-Plex Suspension Array System (Bio-Rad).
Imidazoquinolines stimulate both an innate and an adaptive immune response. The innate immune response induced by imidazoquinolines drives the adaptive immune response into a Th1 cell-mediated response via the local cytokine and chemokine milieu generated primarily by activated macrophages and DC. Thus, Applicants wanted to determine whether selected imidazoquinolines could stimulate LC exposed to HPV16 VLP to produce a proinflammatory cytokine and chemokine profile similar to the cytokine milieu known to be generated by imidazoquinoline-activated DC. Cytokines and chemokines produced by untreated LC, LC exposed to HPV16 VLP, LC treated with each of the imidazoquinoline compounds, and LC exposed to HPV16 VLP and treated with the imidazoquinoline compounds were evaluated. Supernatant from each treatment was collected and analyzed using a human cytokine LINCOplex assay.

[4] = system: LC exposed to HPV16 cVLP with autologous CD8+ T cells; type: cell-based, human; details: then stimulated, versus untreated LC and LC exposed to cVLP
Protocol: Briefly, LC were left untreated or exposed to 10 μg of HPV16 cVLP for 1 h at 37° C. in PBS. Subsequently, the cells were incubated for 4 h in complete medium supplemented with 1000 U/ml rGM-CSF at 37° C. Then cells were treated with or without each of the imidazoquinolines and incubated for 20 h at 37° C. […] LC were irradiated (25 Gy) and mixed with autologous CD8^+ T cells isolated from PBL by positive selection using a MACS MulitSort CD8^+ isolation kit (Miltenyi Biotec). Day 7 and 14 re-stimulations were done with LC treated as indicated above. For this, the medium was supplemented with IL-2 at 50 U/ml at 48 and 96 h after re-stimulation. After 28 days, cells were pooled and tested for IFN-γ production by ELISPOT as a measurement of HPV16-E7-specific CD8^+ T cell responses. Briefly, 96-well multiscreen hemagglutinin plates (Millipore) were coated with 10 μg/ml anti-human IFN-γ in PBS overnight, washed with PBS/0.5% Tween 20, and blocked for 4 h with complete medium at 37° C./5% CO2. Then, 2.5×10^5 cells/well were incubated in the presence or absence of HPV16-E7 peptide aa 86-93 for 18 h at 37° C. […] Individual spots were counted after staining with 3-amino-9-ethyl-carbazole substrate (Sigma-Aldrich). Spots were counted using the video-imaging KS ELISPOT analysis system (Zeiss).

[5] = system: high-risk HPV-induced vulvar intraepithelium neoplasia (VIN); details: van Seters et al. 2008; cited from earlier work
DC = assay: Imidazoquinoline activation assay on DC, surface markers by flow cytometry; type: cell-based, human
[6] = system: LC exposed to HPV16 L1L2 VLP; type: cell-based, human; details: co-stimulatory and activation molecules, Th1-promoting cytokines, HPV-specific T cells
Protocol: LC were left untreated or exposed to HPV16 L1L2 VLP for 18 h at 37° C. […] Cell supernatants were analyzed for IL-12 p40/p70 using a Bio-plex suspension bead ELISA (BioRad, Hercules, Calif.).

LC exposed to HPV16 VLP [7] = assay: Transwell migration assay toward CCL21; type: cell-based, human; details: then treated, 250 ng/ml CCL21, 3 h
Protocol: LC, HPV16 VLP-exposed LC, or HPV16 VLP-exposed LC treated with each of the imidazoquinolines, using the same concentrations as stated in the imidazoquinoline activation assay, to the upper chambers. The plates were incubated for 3 h at 37° C. Cells that migrated to the lower chamber were counted, and migration was calculated as the ratio of cells that migrated with/without CCL21.

[8] = system: cervical intraepithelial neoplasia (CIN); details: cited from earlier work
[9] = system: LC and LC exposed to HPV16 VLP; type: cell-based, human; details: 5 μM 3M-002, 30 μM imiquimod, 30 μM resiquimod, 5 μM 3M-031, 24 h; for expression of surface markers (MHC class I, MHC class II, CD80, CD86) on LC exposed to HPV16 VLP: then treated; for expression of surface markers (MHC class I, MHC class II, CD80, CD86) on LC: LC not exposed to VLP
Protocol: For DC, plastic adherent cells were selected by plating 2×10^8 cells in a 175-cm^2 tissue culture flask for 2 h at 37° C. Nonadherent cells were washed away and the remaining cells were cultured for 7 days in complete medium containing 1000 U/ml rGM-CSF (Berlex) and 1000 U/ml rIL-4 (BioSource International), of which 100% was replenished on day 3 and 50% was replenished on day 6. For LC, adherent cells were cultured for 7 days in complete medium containing 1000 U/ml rGM-CSF, 1000 U/ml rIL-4, and 10 ng/ml rTGF-β1 (BioSource International), of which 100% was replenished on day 3, 50% of rGM-CSF and rIL-4 was replenished on day 6, and 100% of rTGF-β1 was replenished on days 3 and 6.
as §1
Each population of cells was harvested after the final incubation and analyzed by flow cytometry for the expression of surface markers.

LC [10] = details: mouse model; Suzuki et al. 2000; cited from earlier work
LC exposed to HPV16 VLP [11] = assay: CCR7 expression on LC by flow cytometry; type: cell-based, human; details: then treated
LC [12] = details: Burns et al. 2000; Suzuki et al. 2000; cited from earlier work
LC [13] = details: allogenic MLR; Burns et al. 2000; cited from earlier work

Structure (SMILES) | Agonist receptor(s) (TLR7 and/or TLR8) | water solubility [1] | transcription of cytokine genes (TNF-α, IL-6, IL-12p40 mRNA) (LC [2]) | IP-10, MCP-1 and RANTES (CCL5) secretion [3] | IL-12p70, TNF-α, IL-6, IL-8 and MIP-1β concentrations in supernatant [3] | HPV16 E7 86-93 epitope-specific CD8+ T cell response (IFN-γ ELISPOT) [4] | treatment of high-risk HPV-induced VIN [5] | expression of surface markers (MHC class I, MHC class II, CD80, CD86) on DC (DC) | activation of HPV-exposed LC [6] | migration toward CCL21 (LC exposed to HPV16 VLP [7]) | regression of cervical intraepithelial neoplasia (CIN) ([8]; clinical trials) | toxicity to the cervix ([8]; in vivo) | expression of surface markers (MHC class I, MHC class II, CD80, CD86) on LC exposed to HPV16 VLP [9] | expression of surface markers (MHC class I, MHC class II, CD80, CD86) on LC [9] | migration of LC (LC [10]) | expression of CCR7 (LC exposed to HPV16 VLP [11]) | phenotypic and functional activation of LC (LC [12]) | allostimulatory capacity of treated LC (T cell proliferation) (LC [13])
CCCc1nc2c(N)nc3ccccc3c2s1 [3M-002] | TLR8 |  |  |  |  |  |  |  |  |  |  |  |  |  |  |  |  | 
CCOCc1nc2c(N)nc3ccccc3c2[nH]1 [CL097] |  | ≥ 20 mg/mL |  |  |  |  |  |  |  |  |  |  |  |  |  |  |  | 
CC(C)Cn1cnc2c(N)nc3ccccc3c21 [imiquimod] | TLR7 |  | enhanced the transcription of the genes | comparable amounts | comparable amounts | did not induce a significant HPV16 epitope-specific immune response | successful in treating | induced the up-regulation of surface markers | did not activate HPV-exposed LC | did not enhance CCL21-directed migration | has not led to regression | toxic to the cervix | moderately increased the expression of surface markers | only a minor up-regulation of surface markers | induces the migration of LC | did not induce the expression of CCR7 |  | 
CCOCc1nc2c(N)nc3ccccc3c2n1CC(C)(C)O [resiquimod] | TLR8/7 |  | enhanced the transcription of the genes | highly secreted | statistically significantly elevated | initiated a statistically significant HPV16 epitope-specific response |  | induced the up-regulation of surface markers | fully activated HPV treated LC | significantly induced the migration |  |  | significantly induced the up-regulation of the surface markers | significantly induced the up-regulation of surface marker |  | induced the up-regulation of CCR7 | do not phenotypically but functionally activate LC | highly increased the allostimulatory capacity of LC
